Assay results as given in patent US4943595A, “Perfluorochemicals and process for preparing the same” (The Green Cross Corporation, priority 1984, dated 1990).

Columns and labels:
[1] = Vapor pressure of the perfluorochemical
[2] = comparison between perfluorochemicals; cited from earlier work

SMILES	Vapor pressure ([1]; 38° C.)	also measured
FC(F)(F)C(F)(F)C(F)(OC(F)(C(F)(F)F)C(F)(F)F)C(F)(C(F)(F)F)C(F)(F)F (stereo not shown) [Ex. 2, Perfluroo-3-isopropoxy-2-methylpentane]		Vapor pressure ([1]; 37.5° C.): 35-36 mmHg
FC(F)(F)C(F)(F)C(F)(F)C(F)(F)OC(F)(C(F)(F)C(F)(F)F)C(F)(C(F)(F)F)C(F)(F)F (stereo not shown) [Ex. 3, Perfluoro-3-n-butoxy-methylpentane]		Vapor pressure ([1]; 37.5° C.): 11-13 mmHg
FC(F)(F)C(F)(F)C(F)(OC(F)(F)C(F)(C(F)(F)F)C(F)(F)F)C(F)(C(F)(F)F)C(F)(F)F (stereo not shown) [Ex. 4, Perfluoro-3-isobutoxy-2-methyl pentane]		Vapor pressure ([1]; 37.5° C.): 14-15 mmHg
FC(F)(F)C(F)(F)C(F)(OC(F)(C(F)(F)C(F)(F)F)C(F)(C(F)(F)F)C(F)(F)F)C(F)(F)F (stereo not shown) [Ex. 5, Perfluoro-3-sec-butoxy-2-methylpentane]		Vapor pressure ([1]; 37.5° C.): 13-14 mmHg
FC(F)(F)C(F)(F)C(F)(OC(F)(F)C(F)(F)C(F)(C(F)(F)F)C(F)(F)F)C(F)(C(F)(F)F)C(F)(F)F (stereo not shown) [Ex. 6, Perfluoro-3-isopentoxy-2-methylpentane]		Vapor pressure ([1]; 37.5° C.): 8-9 mmHg
FC(F)(F)C(F)(F)OC(F)(C(F)(C(F)(F)F)C(F)(F)F)C(F)(C(F)(F)F)C(F)(F)F [Ex. 8, Perfluoro-3-ethoxy-2,4-dimethylpentane]	30-31 mmHg	
FC(F)(F)C(F)(F)C(F)(F)C(F)(F)OC(F)(C(F)(C(F)(F)F)C(F)(F)F)C(F)(C(F)(F)F)C(F)(F)F [Ex. 10, Perfluoro-3-n-butoxy-2,4-dimethylpentane]	8-9 mmHg	
FC(F)(F)C(F)(C(F)(F)F)C(F)(F)OC(F)(C(F)(C(F)(F)F)C(F)(F)F)C(F)(C(F)(F)F)C(F)(F)F [Ex. 11, Perfluoro-3-isobutoxy-2,4-dimethylpentane]	8-9 mmHg	
FC(F)(F)C(F)(F)C(F)(F)C(OC(F)(C(F)(F)F)C(F)(F)F)(C(F)(F)F)C(F)(F)F [Ex. 13, Perfluoro-2-isopropoxy-2-methylpentane]	29-30 mmHg	
FC(F)(F)C(F)(F)C(F)(F)C(F)(F)OC(C(F)(F)F)(C(F)(F)F)C(F)(F)C(F)(F)C(F)(F)F [Ex. 14, Perfluoro-2-n-butoxy-2-methylpentane]	13-14 mmHg	
FC(F)(F)C(F)(F)C(F)(F)C(OC(F)(F)C(F)(C(F)(F)F)C(F)(F)F)(C(F)(F)F)C(F)(F)F [Ex. 15, Perfluoro-2-isobutoxy-2-methylpentane]	15-16 mmHg	
FC(F)(F)C(F)(F)C(F)(F)C(OC(F)(C(F)(F)F)C(F)(F)C(F)(F)F)(C(F)(F)F)C(F)(F)F (stereo not shown) [Ex. 16, Perfluoro-2-sec-butoxy-2-methylpentane]	15-16 mmHg	
FC(F)(F)C(F)(F)C(F)(F)C(OC(F)(F)C(F)(F)C(F)(C(F)(F)F)C(F)(F)F)(C(F)(F)F)C(F)(F)F [Ex. 17, Perfluoro-2-isovaleroxy-2-methylpentane]	9-10 mmHg	
FC(F)(F)C(F)(F)OC(F)(F)C(F)(F)C(F)(F)C(F)(F)C(F)(F)C(F)(F)C(F)(F)F [Ex. 19, Perfluoro-1-ethoxyheptane]	33 mmHg	
FC(F)(F)C(F)(F)C(F)(F)C(F)(F)C(F)(F)C(F)(F)C(F)(F)OC(F)(C(F)(F)F)C(F)(F)F [Ex. 20, Perfluoro-1-isopropoxyheptane]	14-15 mmHg	
FC(F)(F)C(F)(F)C(F)(F)C(F)(F)OC(F)(F)C(F)(F)C(F)(F)C(F)(F)C(F)(F)C(F)(F)C(F)(F)F [Ex. 21, Perfluoro-1-n-butoxyheptane]	8-9 mmHg	
FC(F)(F)C(F)(F)C(F)(F)C(F)(F)C(F)(F)C(F)(F)C(F)(F)OC(F)(F)C(F)(C(F)(F)F)C(F)(F)F [Ex. 22, Perfluoro-1-isobutoxyheptane]	8-9 mmHg	
FC(F)(F)C(F)(F)C(F)(F)C(F)(F)C(F)(F)C(F)(F)C(F)(F)OC(F)(C(F)(F)F)C(F)(F)C(F)(F)F (stereo not shown) [Ex. 23, Perfluoro-1-sec-butoxyheptane]	9-10 mmHg	
FC(F)(F)C(F)(F)C(F)(F)OC(F)(C(F)(F)C(F)(F)F)C(F)(C(F)(F)F)C(F)(F)F (stereo not shown) [Example 1, perfluoro-3-n-propoxy-2-methylpentane]	29 mmHg	
FC(F)(F)C(F)(F)C(F)(F)OC(F)(C(F)(C(F)(F)F)C(F)(F)F)C(F)(C(F)(F)F)C(F)(F)F [Example 7, Perfluoro-3-propoxy-2,4-dimethylpentane]	16-17 mmHg	
FC(F)(F)C(F)(F)C(F)(F)OC(C(F)(F)F)(C(F)(F)F)C(F)(F)C(F)(F)C(F)(F)F [Example 12, Perfluoro-2-n-propoxy-2-methylpentane]	33 mmHg	
FC(F)(F)OC(F)(C(F)(F)F)C(F)(F)C(C(F)(F)F)(C(F)(F)C(F)(F)F)C(F)(F)C(F)(F)F (stereo not shown) [Example 24, perfluoro-2-methoxy-4-ethyl-4-methylhexane]	17-18 mmHg	
FC(F)(F)C(F)(F)OC(F)(C(F)(F)F)C(F)(F)C(C(F)(F)F)(C(F)(F)C(F)(F)F)C(F)(F)C(F)(F)F (stereo not shown) [Example 25, perfluoro-2-ethoxy-4-ethyl-4-methylhexane]	8-9 mmHg	

SMILES	Vapor pressure ([1]; 38° C.)	also measured
FC(F)(F)OC(F)(C(F)(F)F)C(F)(C(F)(C(F)(F)F)C(F)(F)F)C(F)(C(F)(F)F)C(F)(F)F (stereo not shown) [Example 26, perfluoro-2-methoxy-3-isopropyl-4-methylpentane]	18-19 mmHg	
FC(F)(F)C(F)(F)OC(F)(C(F)(F)F)C(F)(C(F)(C(F)(F)F)C(F)(F)F)C(F)(C(F)(F)F)C(F)(F)F (stereo not shown) [Example 27, perfluoro-2-ethoxy-3-isopropyl-4-methylpentane]	10-11 mmHg	
FC(F)(F)C(F)(F)OC(F)(F)C(F)(C(F)(F)F)C(F)(OC(F)(F)C(F)(F)F)C(F)(F)C(F)(F)F (stereo not shown) [Example 28, perfluoro-1,3-diethoxy-2-methylpentane]	13-14 mmHg	
FC(F)(F)OC(F)(F)C(F)(C(F)(F)F)C(F)(OC(F)(F)F)C(F)(F)C(F)(F)F (stereo not shown) [Example 29, perfluoro-1,3-dimethoxy-2-methylpentane]	48-50 mmHg	
FC(F)(F)OC(OC(F)(F)C(F)(F)C(F)(F)C(F)(F)C(F)(F)F)(C(F)(F)F)C(F)(F)F [Example 30, perfluoro-2-pentoxy-2-methoxypropane]	28-29 mmHg	
FC(F)(F)C(F)(F)OC(OC(F)(F)C(F)(F)C(F)(F)C(F)(F)C(F)(F)F)(C(F)(F)F)C(F)(F)F [Example 31, perfluoro-2-pentoxy-2-ethoxy propane]	13-14 mmHg	
FC(F)(F)C(F)(F)C(F)(F)OC(OC(F)(F)C(F)(F)C(F)(F)F)(C(F)(F)F)C(F)(F)F [Example 32, perfluoro-2,2-di-n-propoxy-propane]	29-30 mmHg	
FC(F)(F)N(C(F)(F)F)C(F)(F)C(F)(C(F)(F)F)C(F)(F)C(F)(F)C(F)(F)F (stereo not shown) [Example 33, perfluoro-1-dimethylamino-2-methylpentane]	37-38 mmHg	
FC(F)(F)N(C(F)(F)C(F)(F)F)C(F)(F)C(F)(C(F)(F)F)C(F)(F)C(F)(F)C(F)(F)F (stereo not shown) [Example 34, perfluoro-1-ethylmethylamino-2-methylpentane]	21 mmHg	
FC(F)(F)C(F)(F)N(C(F)(F)C(F)(F)F)C(F)(F)C(F)(C(F)(F)F)C(F)(F)C(F)(F)C(F)(F)F (stereo not shown) [Example 35, perfluoro-1-diethylamino-2-methylpentane]	8-9 mmHg	
FC(F)(F)N(C(F)(F)F)C(F)(F)C(F)(C(F)(F)F)C(F)(F)C(F)(C(F)(F)F)C(F)(F)F (stereo not shown) [Example 36, Perfluoro-1-dimethylamino-2,4-dimethylpentane]	18-19 mmHg	
FC(F)(F)N(C(F)(F)C(F)(F)F)C(F)(F)C(F)(C(F)(F)F)C(F)(F)C(F)(C(F)(F)F)C(F)(F)F (stereo not shown) [Example 37, perfluoro-1-ethyl-methylamino-2,4-dimethylpentane]	12-13 mmHg	
FC(F)(F)N(C(F)(F)F)C(C(F)(F)F)(C(F)(F)F)C(F)(F)C(F)(F)C(F)(F)F [Example 38, perfluoro-2-dimethylamino-2-methylpentane]	37-38 mmHg	
FC(F)(F)N(C(F)(F)C(F)(F)F)C(C(F)(F)F)(C(F)(F)F)C(F)(F)C(F)(F)C(F)(F)F [Example 39, Perfluoro-2-methylethylamino-2-methylpentane]	20-21 mmHg	
FC(F)(F)N(C(F)(F)C(F)(F)C(F)(F)F)C(C(F)(F)F)(C(F)(F)F)C(F)(F)C(F)(F)C(F)(F)F [Example 40, perfluoro-2-methylpropylamino-2-methylpentane]	9-10 mmHg	
FC(F)(F)N(C(F)(F)F)C(F)(F)C(C(F)(F)F)(C(F)(F)F)C(F)(F)C(F)(F)C(F)(F)F [Example 41, Perfluoro-1-dimethylamino-2,2-dimethylpentane]	18-19 mmHg	
FC(F)(F)N(C(F)(F)F)C(F)(C(F)(F)C(F)(F)F)C(F)(C(F)(F)F)C(F)(F)F (stereo not shown) [Example 42, 3-perfluoro-3-dimethylamino-2-methylpentane]	37-38 mmHg	
FC(F)(F)C(F)(F)N(C(F)(F)C(F)(F)F)C(F)(C(F)(F)C(F)(F)F)C(F)(C(F)(F)F)C(F)(F)F (stereo not shown) [Example 43, perfluoro-3-diethylamino-2-methylpentane]	9-10 mmHg	
FC(F)(F)N(C(F)(F)F)C(F)(C(F)(C(F)(F)F)C(F)(F)F)C(F)(C(F)(F)F)C(F)(F)F [Example 44, perfluoro-3-dimethylamino-2,4-dimethylpentane]	21-22 mmHg	
FC(F)(F)C(F)(F)C(F)(F)C(F)(F)C1(F)C(F)(F)C(F)(F)C(F)(F)C(F)(F)C1(F)F [III]		elimination rate (in words) [2]: IV>>III≥I >II
FC(F)(F)C(F)(F)C1(C(F)(F)F)C(F)(C(F)(F)F)OC(F)(C(F)(F)F)C1(F)C(F)(F)F (stereo not shown) [II]		elimination rate (in words) [2]: IV>>III≥I >II
FC1(F)C(F)(F)C(F)(F)C2(F)C(F)(F)C(F)(F)C(F)(F)C(F)(F)C2(F)C1(F)F (stereo not shown) [IV]		elimination rate (in words) [2]: IV>>III≥I >II
FC(F)(F)C(F)(F)C(F)(F)C(F)(F)C(F)(F)OC(F)(F)C(F)(F)C(F)(F)C(F)(F)C(F)(F)F [I]		elimination rate (in words) [2]: IV>>III≥I >II
